Here are results for twelve molecules from patent US10023575B2, “Cyclic ether derivatives of pyrazolo[1,5-a]pyrimidine-3-carboxyamide” (Boehringer Ingelheim International GmbH, priority 2015, dated 2018).

SMILES strings stand for the structures.

In one data set the target is PDE 2A (Homo sapiens (Human), UniProt O00408). The data set is described as follows: Phosphodiesterase (PDE) 2A assay with fluorescent substrate (IMAP, fluorescence polarization). The settings on record: labeled cAMP 30 nM, read-out: PDE2 IC50. It is filed as biochemical. As to the method:
(§1) The PDE reaction cleaves cAMP to AMP. The IMAP system (Molecular Device) using fluorescence polarization (FP) as detection principle was used to measure enzyme activity. A fluorescent labeled cAMP was used as substrate for the reaction, generating a labeled AMP. The fluorescent AMP binds specifically to the large M(III)-based nano-particles which reduces the rotational speed of the substrate and thus increases its polarization.
(§2) The inhibition of PDE 2A or 10 enzyme activity was assessed using IMAP-Phosphodiesterase-cAMP fluorescence labeled substrate (Molecular Devices, Order No. R7506), IMAP TR-FRET screening express (Molecular Devices, Order No. R8160, the TR-FRET component will not be used) and PDE 2A or PDE10 protein expressed upon baculovirus infection in SF9 cells. The cells were incubated after infection for ˜3 days and protein production was confirmed by Western Blot. The cells were collected by centrifugation and the pellet frozen in liquid nitrogen before it was resuspended in PBS containing 1% Triton X-100 and protease inhibitors. After 45 min incubation on ice, the cell debris was removed by centrifugation (13.000 rpm, 30 min).
(§3) All reactions were performed in 384 well plates, Perkin Elmer black optiplates and IMAP reaction buffer with 0.1% Tween20 (kit component)
(§4) Compounds were serial diluted in DMSO. With an intermediate dilution step with reaction buffer DMSO concentration was reduced to achieve 1% DMSO in the assay reaction. Setup of the assay started with 10 μl enzyme (˜10 ng/well, depending on prep. batch), 5 μl compound, reaction was started by addition of 5 μl labeled cAMP (30 nM, final concentration), immediately mixed for 15 seconds on a Eppendorf mixmate (2000 rpm) followed by an incubation at room temperature for 90 minutes in the dark. Reaction is stopped by adding of 60 μl binding buffer for FP/cAMP (kit component).
(§5) Each assay plate contained wells with vehicle controls (1% DMSO) for the measurement of non-inhibited reaction (=100% control) and wells without enzyme as 0% controls.

The target in a further data set is PDE10 (Homo sapiens (Human), UniProt Q9Y233). The data set is described as follows: Phosphodiesterase (PDE) 10 assay with fluorescent substrate (IMAP, fluorescence polarization). It is filed as biochemical. The settings on record: labeled cAMP 30 nM. How it is done:
as §1, §2, §3, §4, §5
Background: In fluorescence polarisation assays a small probe gives low polarisation when free and higher when bound to something large.

A short description of data set [1]: Plasma protein binding with equilibrium dialysis, human plasma. It is filed as in vitro ADME. The settings on record: equilibrium dialysis 2 hours 37° C.; for fraction unbound at 2 h, 1 µM: human, pooled human plasma (with NaEDTA), pH 7.4, human plasma, read-out: PPB HUM % BINDING (converted); for PPB HUM % BINDING: human plasma, 1.0 μM. The text has this:
(§6) Plasma Protein Binding (Determination of Human and Rat Plasma Protein Binding with Equilibrium Dialysis)
(§7) This equilibrium dialysis (ED) technique is used to determine the approximate in vitro fractional binding of test compounds to human and rat plasma proteins.
(§8) Dianorm Teflon dialysis cells (micro 0.2) are used. Each cell consists of a donor and an acceptor chamber, separated by an ultrathin semipermeable membrane with a 5 kDa molecular weight cutoff.
(§9) Stock solutions for each test compound are prepared in DMSO at 1 mM and diluted to a final concentration of 1.0 μM. The subsequent dialysis solutions are prepared in pooled human and rat plasma (with NaEDTA)
(§10) Aliquots of 200 μL dialysis buffer (100 mM potassium phosphate, pH 7.4) are dispensed into the buffer chamber. Aliquots of 200 μL test compound dialysis solution are dispensed into the plasma chambers. Incubation is carried out for 2 hours under rotation at 37° C.
(§11) At the end of the dialysis period, the dialysate is transferred into reaction tubes. The tubes for the buffer fraction contain 0.2 ml Acetonitril/water (80/20). Aliquots of 25 μl of the plasma dialysate are transferred into deep well plates and mixed with 25 μl Acetonitril/water (80/20), 25 μl buffer, 25 μl calibration solution and 25 μl Internal Standard solution. Protein precipitation is done by adding 200 μl Acetonitrile. Aliquots of 50 μl of the buffer dialysate are transferred into deep well plates and mixed with 25 μl blank plasma, 25 μl Internal Standard solution and 200 μl Acetonitril. Samples are measured on HPLC-MS/MS-Systems and evaluated with Analyst-Software.
(§12) Percent bound is calculated with the formula: % bound=(plasma concentration−buffer concentration/plasma concentration)×100 and % free is calculated as difference.
(In equilibrium dialysis free small molecules cross a membrane that holds back macromolecules.)

Data set [2] is described as follows: Plasma protein binding with equilibrium dialysis, rat plasma. It is filed as in vitro ADME. The settings on record: rat, pooled rat plasma (with NaEDTA), pH 7.4, rat plasma, equilibrium dialysis 2 hours 37° C., read-out: PPB RAT % BINDING (converted).
Text: as §6, §7, §8, §9, §10, §11, §12

The nature of data set [3]: Metabolic stability in pooled human liver microsomes. It is filed as in vitro ADME. The settings on record: 1 mg/mL protein, 1 μM compound, 37° C.; for half-life at 1 µM: human, pooled human liver microsomes, pH 7.6, human liver microsomes, read-out: Half-life t½ human; for Half-life t½ human: human liver microsomes. As to the method:
The metabolic degradation of the test compound was assayed at 37° C. with pooled liver microsomes from various species. The final incubation volume of 100 μl per time point contains TRIS buffer pH 7.6 at room temperature (0.1 M), magnesium chloride (5 mM), microsomal protein (1 mg/mL for human and dog, 0.5 mg/mL for other species) and the test compound at a final concentration of 1 μM. Following a short preincubation period at 37° C., the reactions were initiated by addition of betanicotinamide adenine dinucleotide phosphate, reduced form (NADPH, 1 mM), and terminated by transferring an aliquot into solvent after different time points. […] The half-life was determined by the slope of the semi-logarithmic plot of the concentration-time profile.
(In general: Microsomes from liver hold many membrane-bound enzymes, among them those of drug oxidation.)

PDE10, sequence (Q9Y233 whole entry): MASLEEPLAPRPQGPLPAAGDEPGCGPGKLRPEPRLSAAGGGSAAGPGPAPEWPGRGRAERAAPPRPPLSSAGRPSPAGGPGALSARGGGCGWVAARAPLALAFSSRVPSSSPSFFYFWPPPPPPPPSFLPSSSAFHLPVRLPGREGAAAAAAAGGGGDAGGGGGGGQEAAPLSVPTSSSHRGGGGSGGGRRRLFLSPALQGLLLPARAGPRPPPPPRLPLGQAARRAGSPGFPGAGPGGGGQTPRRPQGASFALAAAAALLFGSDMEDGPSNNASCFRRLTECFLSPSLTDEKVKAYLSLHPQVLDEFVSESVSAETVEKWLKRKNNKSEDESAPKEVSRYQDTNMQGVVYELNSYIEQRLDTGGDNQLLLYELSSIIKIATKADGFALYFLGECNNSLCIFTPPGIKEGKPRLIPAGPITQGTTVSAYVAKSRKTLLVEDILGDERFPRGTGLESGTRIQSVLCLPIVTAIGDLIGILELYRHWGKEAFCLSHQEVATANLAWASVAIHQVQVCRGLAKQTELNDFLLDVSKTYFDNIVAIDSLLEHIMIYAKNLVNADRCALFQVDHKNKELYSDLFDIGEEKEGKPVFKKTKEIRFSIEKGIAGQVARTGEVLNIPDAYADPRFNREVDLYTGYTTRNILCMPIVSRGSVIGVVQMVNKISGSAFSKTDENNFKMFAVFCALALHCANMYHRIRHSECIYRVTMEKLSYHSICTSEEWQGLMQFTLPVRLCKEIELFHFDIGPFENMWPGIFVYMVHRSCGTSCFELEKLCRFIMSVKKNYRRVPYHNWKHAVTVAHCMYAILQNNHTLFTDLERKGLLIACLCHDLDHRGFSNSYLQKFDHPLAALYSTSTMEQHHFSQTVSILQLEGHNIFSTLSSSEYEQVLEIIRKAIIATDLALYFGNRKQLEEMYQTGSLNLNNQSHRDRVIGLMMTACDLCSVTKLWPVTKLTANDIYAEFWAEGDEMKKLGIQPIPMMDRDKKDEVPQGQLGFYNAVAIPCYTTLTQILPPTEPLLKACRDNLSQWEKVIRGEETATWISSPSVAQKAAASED
PDE 2A, sequence (O00408 whole entry, species assumed): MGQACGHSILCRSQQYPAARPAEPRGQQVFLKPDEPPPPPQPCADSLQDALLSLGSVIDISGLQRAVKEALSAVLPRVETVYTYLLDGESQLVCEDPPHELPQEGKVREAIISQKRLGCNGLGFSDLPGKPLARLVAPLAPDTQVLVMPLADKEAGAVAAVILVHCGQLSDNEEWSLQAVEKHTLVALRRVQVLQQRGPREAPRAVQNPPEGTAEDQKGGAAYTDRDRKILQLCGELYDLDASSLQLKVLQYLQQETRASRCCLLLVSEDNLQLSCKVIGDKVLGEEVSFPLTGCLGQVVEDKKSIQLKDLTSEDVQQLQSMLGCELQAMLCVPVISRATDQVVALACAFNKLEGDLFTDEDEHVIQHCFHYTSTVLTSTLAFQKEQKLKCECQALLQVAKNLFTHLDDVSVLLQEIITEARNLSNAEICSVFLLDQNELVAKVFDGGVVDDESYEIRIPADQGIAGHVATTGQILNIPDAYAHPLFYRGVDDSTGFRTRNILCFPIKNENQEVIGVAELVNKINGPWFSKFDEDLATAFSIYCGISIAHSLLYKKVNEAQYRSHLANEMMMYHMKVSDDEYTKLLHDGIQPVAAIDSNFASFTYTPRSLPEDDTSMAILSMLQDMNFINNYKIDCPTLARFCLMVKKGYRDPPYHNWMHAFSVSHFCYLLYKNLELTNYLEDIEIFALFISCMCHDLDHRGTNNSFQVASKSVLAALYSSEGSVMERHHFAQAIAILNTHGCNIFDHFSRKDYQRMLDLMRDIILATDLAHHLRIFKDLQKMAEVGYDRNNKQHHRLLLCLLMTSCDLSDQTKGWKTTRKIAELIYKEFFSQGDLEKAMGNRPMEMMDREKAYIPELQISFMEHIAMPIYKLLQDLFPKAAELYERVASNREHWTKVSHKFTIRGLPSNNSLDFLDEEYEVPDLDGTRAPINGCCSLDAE

Broadly, the IC50 is the concentration needed to halve the response being measured. With `Cc1cnc2c(C(=O)NC3(c4ccc(C(F)(F)F)cc4F)CCCOC3)cnn2c1` (racemic) [Example 31], the IC50 was 30 nM at PDE 2A and above 10000 nM at PDE10. Moreover, the fraction unbound at 2 h, 1 µM in data set [1] is 0.047; in data set [2], 0.024.

For `Cc1cnc2c(C(=O)NC3(c4ccc(C(F)(F)F)cc4F)CCOC3)cnn2c1` (racemic) [Example 35], the IC50 on PDE 2A was 31 nM; against PDE10 it was above 10000 nM. Besides, the fraction unbound at 2 h, 1 µM in data set [1] was 0.076; in data set [2] it was 0.063.

In general, half-life refers to the time needed for the level to fall by half in the phase considered. As to `O=C(NC1(c2ccc(C(F)(F)F)cc2)CCOC1)c1cnn2cc(C3CC3)cnc12` (racemic) [Example 37], the IC50 at PDE 2A was 192 nM; against PDE10 it was above 10000 nM. For the same molecule, the fraction unbound at 2 h, 1 µM was 0.056 in data set [1] and 0.065 in data set [2]. Further, in data set [3], the half-life at 1 µM was above 2.17 h.

In turn, `Cc1cnc2c(C(=O)NC3(c4ccc(C(F)(F)F)cc4F)CCOCC3O)cnn2c1` (racemic) [Example 46] registered a concentration for half-maximal inhibition (IC50) against PDE10 above 10000 nM. The values for the fraction unbound at 2 h, 1 µM in data set [1] and in data set [2] were 0.329 and 0.313, respectively. In data set [3], the half-life at 1 µM was above 2.17 h.

Take `Cc1nn2cc(C3CC3)cnc2c1C(=O)NC1(c2ccc(C(F)(F)F)nc2)CCOCC1O` (racemic) [Example 51]: the fraction unbound at 2 h, 1 µM in data set [1] is 0.531. In addition, in data set [3], the half-life at 1 µM was above 2.17 h.

`O=C(NC1(c2ccc(C(F)(F)F)cc2F)COCC1O)c1cnn2cc(C3CC3)cnc12` (single isomer, unassigned) [Example 68]: the results for the IC50 on PDE 2A and against PDE10 were 24 nM and above 10000 nM, respectively. Also, the “PPB HUM % BINDING” value in data set [1] stood at 84.4%. The “Half-life t½ human” value in data set [3] was above 2.17 h.

Regarding `O=C(NC1(c2ccc(C(F)(F)F)cc2F)COCC1O)c1cnn2cc(C3CC3)cnc12` (single isomer, unassigned) [Example 69], the IC50 at PDE 2A was 1740 nM; on PDE10, above 10000 nM. The “PPB HUM % BINDING” value in data set [1] was found to be 90.7%. The “Half-life t½ human” value in data set [3] was 0.883 h.

Consider `CC1(O)COCCC1(NC(=O)c1cnn2cc(C3CC3)cnc12)c1ccc(C(F)(F)F)cc1F` (single isomer, unassigned) [Example 86a], for which the fraction unbound at 2 h, 1 µM in data set [1] is 0.105; in data set [2] it was 0.065.

Consider `Cc1nn2cc(C3CC3)cnc2c1C(=O)NC1(c2ccc(C(F)(F)F)nc2)CCOCC1O` (single isomer, unassigned) [Example 88b], for which, in data set [1], the fraction unbound at 2 h, 1 µM was 0.558. For the same molecule, the half-life at 1 µM in data set [3] is above 2.17 h.

As to `Cc1cnc2c(C(=O)NC3(c4ccc(C(F)(F)F)cc4F)CCOCC3)cnn2c1` [Example 2], the IC50 on PDE 2A is 22 nM; against PDE10, above 10000 nM. In addition, the figures for the fraction unbound at 2 h, 1 µM in data set [1] and in data set [2] were 0.085 and 0.053, respectively. Also, in data set [3], the half-life at 1 µM worked out at 2 h.

Turning to `O=C(NC1(c2ccc(C(F)(F)F)cc2F)CCOCC1)c1cnn2cc(F)cnc12` [Example 3], the IC50 was 266 nM at PDE 2A and above 10000 nM against PDE10. Further, the fraction unbound at 2 h, 1 µM in data set [1] was 0.157. Further, the half-life at 1 µM in data set [3] stood at 1.2 h.

For `Cc1nn2cc(C3CC3)cnc2c1C(=O)NC1(c2ncc(C(F)(F)F)cc2F)CCOCC1` [Example 17], the IC50 at PDE 2A stood at 39 nM; against PDE10, 6940 nM. In addition, the fraction unbound at 2 h, 1 µM was 0.086 in data set [1] and 0.093 in data set [2]. In addition, the half-life at 1 µM in data set [3] was above 2.17 h.
